Assays:
[1] = test system: AT1R desensitization (Ca2+); experiment: Ca2+ mobilization in HEK293 cells stably expressing AT1R; format: cell-based, human; settings: 10 μM, 30 min, ANGII 30 pM
Procedure: Intracellular (Ca^2+) release was measured using the FLIPR Calcium 6 assay kit with a FlexStation 3 microplate reader, following the manufacturer’s instructions (Molecular Devices) and as described previously. In brief, HEK293 cells stably expressing human angiotensin II type 1 receptor (AT1R), parental HEK293 cells transiently expressing AT1R, or HEK293 CRISPR–Cas9 βARR1/2-knockout cells transiently expressing AT1R were seeded in poly-D-lysine-coated, black 96-well assay plates at a density of 40,000 cells per well and incubated for 24 h. On the day of the experiment, cell plates were loaded with FLIPR Calcium 6 reagents and treated with β-arrestin small-molecule modulators (10 μM) or vehicle (DMSO) for 30 min. After establishing basal fluorescence (F0), the cells were treated with the agonist ANGII (30 pM for stably expressing AT1R or 120 pM for transiently expressing AT1R) while fluorescence intensity (F) was monitored in real time. These sub-maximal ANGII concentrations were empirically optimized to elicit moderate, temporally resolved Ca^2+ transients, allowing sufficient time for β-arrestin-mediated desensitization to develop prior to the peak response. The complete Ca^2+ transient profile was quantified by calculating the AUC over time. AUC values were normalized to the response to ANGII alone (set as 100%) to compare the effects of modulators relative to the agonist-alone control.

[2] = test system: β2AR desensitization (cAMP); experiment: FRET (ICUE2) cAMP accumulation, β2AR desensitization; format: cell-based; settings: 40 μM, 5 min; Iso 10 μM; HEK293 cells stably expressing β2AR
Procedure: To measure cellular cAMP production in live cells mediated by stimulatory G protein, Gαs-coupled β2AR activation, FRET-based Epac sensors were used as described previously. The Epac2 (ICUE2) sensor contains a CFP and YFP FRET pair. HEK293 cells stably expressing ICUE2 were plated in poly-D-lysine-coated, black, clear-bottom 96-well plates (Corning) at a density of 50,000 cells per well. At least 16 h after plating, cells were washed with PBS and incubated in HEPES-buffered saline solution (10 mM HEPES, 150 mM NaCl, 5 mM KCl, 1.5 mM MgCl2, 1.5 mM CaCl2, 10 mM glucose, 0.2% BSA, pH 7.4) for 1 h at 37 °C. Cells were then treated with either β-arrestin small-molecule modulators (40 μM) or DMSO for 5 min, and baseline fluorescence was monitored. Real-time cAMP measurement was initiated by stimulating cells with 10 μM Iso at 37 °C. FRET changes corresponding to cAMP accumulation were measured as changes in the background-subtracted 480 nm/535 nm fluorescence emission ratio (CFP/YFP), reflecting changes in cAMP levels. The entire cAMP accumulation profile was quantified by calculating the AUC for the time course. To assess the effect of modulators on the agonist-induced cAMP response, AUC values were expressed as a percentage of the response to Iso in the presence of DMSO (set as 100%), enabling comparison of the effect of each modulator relative to this agonist-alone control.

M2R–Gi = experiment: TRUPATH BRET2 Gα–Gβγ dissociation, M2R–Gi; format: cell-based, human; settings: 50 μM, 15 min; ACh; βarr1/2 KO cells
Procedure: TRUPATH assays[73] were performed in HEK293 βARR1/2-knockout cells transiently transfected using FuGENE4K with a total of 4 μg per 15 cm dish plasmid DNA, including pcDNA3.1 constructs encoding human GPCRs (β2AR, AT1R, M2R or NTSR1), Gα–RLuc8, Gβ3 and Gγ9–GFP2 at a 1:1:1:1 ratio. TRUPATH components were obtained from B. Roth via Addgene (1000000163). Twenty-four hours after transfection, cells were replated into poly-D-lysine-coated 96-well white, clear-bottom plates at 20,000–30,000 cells per well in phenol red-free DMEM supplemented with 2% FBS. BRET signals were acquired 48 h after transfection. On the day of the assay, cells were washed and incubated in HBSS containing 20 mM HEPES (pH 7.4). Modulators were applied at 50 μM for 15 min, followed by addition of Prolume Purple substrate (Nanolight Technologies). Cells were then stimulated with increasing concentrations of agonist (angiotensin II, neurotensin, isoproterenol or acetylcholine). BRET2 was recorded in kinetic mode for 30 min using a CLARIOstar Plus plate reader (480 nm/510 nm), and peak signals were used for quantification. ΔNet BRET ratios were calculated by subtracting the BRET ratio of the vehicle-treated control from each condition, agonist alone or agonist plus modulator. […]

D2R–Gi = experiment: TRUPATH BRET2 Gα–Gβγ dissociation, D2R–Gi; format: cell-based; settings: 50 μM; quinpirole; βarr1/2 KO cells

| SMILES | ANGII-induced Ca2+ response (AUC) relative to DMSO (set to 100%) [1] [%] | Iso-induced cAMP accumulation (AUC) relative to DMSO (set to 100%) [2] [%] | mean fractional decrease vs DMSO in maximal Gα–Gβγ dissociation, M2R (M2R–Gi) | mean fractional decrease vs DMSO in maximal Gα–Gβγ dissociation, D2R (D2R–Gi) |
| --- | --- | --- | --- | --- |
| C=C1C(=O)[C@]23[C@H](O)[C@H]1CC[C@H]2[C@@]12CO[C@]3(O)[C@@H](O)[C@@H]1C(C)(C)CC[C@@H]2O [Cmpd-5, (1S,4aR,5S,6S,6aR,9S,11aS,11bS,14R)-1,5,6,14-tetrahydroxy−4,4-dimethyl-8-methylenedecahydro-1H-6,11b-(epoxymethano)-6a,9-methanocyclohepta[a]naphthalen-7(8H)-one] | 279 | 191 |  |  |
| C=C1C(=O)OC2CC3(C)OC3CCC(C)=CC(OC(C)=O)C12 (stereo not shown) [Cmpd-64, (Z)-4,10a-dimethyl-7-methylene-8-oxo-1a,2,3,6,6a,7,8,9a,10,10a decahydrooxireno[2’,3’:8,9]cyclodeca[1,2-b]furan-6-yl acetate] | 490 | 282 | −0.38 | −0.27 |
| C=C1C(=O)C2=CC1CCC(=O)C1(C)CCC(OCC)C(C)(C)C1CC2O (stereo not shown) [Cmpd-46, (Z)-3-ethoxy-6-hydroxy-4,4,13a-trimethyl-9-methylene-1,2,3,4,4a,5,6,9,10,11,12,13a-dodecahydro-7,10-(metheno)benzo[11]annulene-8,13-dione] | 356 | 207 | −0.32 | −0.18 |
